# Data: patent US20080107603A1, “Neuroprotectant methods, compositions, and screening methods thereof” (priority 2002, published 2008)
# Where two headings read alike, the source gives them in different places.
# Key:
# [1] = test system: tyrosine hydroxylase positive cells (TH+ cells) in the substantia nigra; assay: 6-OHDA lesion rat model, TH+ cells in the substantia nigra; format: in vivo, Sprague-Dawley rats
# Method: Male Sprague-Dawley rats with starting weights 225±25 g, were housed in groups of 3 with free access to food and water, under controlled temperature (21° C.±1° C.) and a 12 hour light/dark cycle (light on 07.00 hrs). All scientific procedures were carried out with the approval of the Home Office, U.K. Rats were administered, by gavage, 70 mg/kg of ergothioneine or vehicle (sterile distilled water) daily for 4 days (n=6 per group). On the 4th day, 1 hr after L-ergothioneine or vehicle administration, rats were anaesthetized with small animal Immobilon® (0.04 ml/rat, i.m.), and 6-OHDA (5 μg dissolved in 4 μl of 0.1% ascorbic acid/saline solution) was injected onto median forebrain bundle (stereotactic co-ordinates: 2.2 mm anterior, +1.5 lateral from bregma and −7.9 ventral to dura with ear bars 5 mm below incisor bars (Datla et al. (2001) Neuroreport 12:3871, which reference is herein specifically incorporated by reference in its entirety). One week after 6-OHDA lesioning, rats were killed by cervical dislocation and the brains were dissected out immediately. A coronal section was made at the level of hypothalamus and fore brain, and hind brain parts were separated. Hind-brain was fixed for 7 days in 4% paraformaldehyde, then cryo-protected with 30% sucrose solution for 2-3 days and used for tyrosine hydroxylase (TH) immuno-staining as described by Datla et al. (2001) supra. Briefly, TH was immuno-stained by incubating the 20 μm fixed coronal free-floating sections with polyclonal rabbit anti-TH (1:3000, Chemicon, U.K.) followed by biotinylated anti-rabbit IgG and avidin/biotin complex (Vector Lab, U.K.). The TH immuno-complex was then visualized by diaminobenzidine (DAB) and H2O2. Images of TH positive cells (TH+ cells) were captured by a Xillix CCD digital camera and counted automatically (Image Proplus, Datacell, U.K.). The number of TH+ cells in the substantia nigra on the control side was compared with the lesioned side by averaging the cells in 5 different levels (Datla et al. (2001) supra). […]
# [2] = Dog; cited from earlier work
# [3] = Sheep; cited from earlier work
structure (smiles),measurement,setting,value
"C[N+](C)(C)[C@@H](Cc1c[nH]c(=S)[nH]1)C(=O)[O-] [L-ergothioneine, 2-mercaptohistidine trimethylbetaine]",improvement in terms of neuroprotection over the controls,[1]; L-ergothioneine vs vehicle treated group,approximately 20%
same,number of TH+ cells on the control side of the brain,"[1]; control (unlesioned) side, vs vehicle group",comparable
same,reduction in the number of TH+ cells,"[1]; lesioned vs control side, 70 mg/kg by gavage, one week after 6-OHDA lesioning",46%
same,L-Ergothioneine Concentration (mg/100 ml blood),[2],3-6 mg/100 ml blood
same,L-Ergothioneine Concentration (mg/100 ml blood),[3],2-6 mg/100 ml blood
